From publication PMC6009858, “Tricyclic coumarin sulphonate derivatives with alkaline phosphatase inhibitory effects: in vitro and docking studies” (Journal of Enzyme Inhibition and Medicinal Chemistry, 2018)

Legend:
[1] = biological target: T1, human tissue nonspecific alkaline phosphatase (h-TNAP) (Homo sapiens, UniProt P05186); experiment: Alkaline phosphatase inhibition assay (h-TNAP), CDP-star luminescence; type: biochemical; details: for IC50: IC50 ± SEM, n = 3, DEA buffer; for selectivity h-TNAP over h-IAP (in words): h-TNAP versus h-IAP
T1 sequence (P05186 18-524): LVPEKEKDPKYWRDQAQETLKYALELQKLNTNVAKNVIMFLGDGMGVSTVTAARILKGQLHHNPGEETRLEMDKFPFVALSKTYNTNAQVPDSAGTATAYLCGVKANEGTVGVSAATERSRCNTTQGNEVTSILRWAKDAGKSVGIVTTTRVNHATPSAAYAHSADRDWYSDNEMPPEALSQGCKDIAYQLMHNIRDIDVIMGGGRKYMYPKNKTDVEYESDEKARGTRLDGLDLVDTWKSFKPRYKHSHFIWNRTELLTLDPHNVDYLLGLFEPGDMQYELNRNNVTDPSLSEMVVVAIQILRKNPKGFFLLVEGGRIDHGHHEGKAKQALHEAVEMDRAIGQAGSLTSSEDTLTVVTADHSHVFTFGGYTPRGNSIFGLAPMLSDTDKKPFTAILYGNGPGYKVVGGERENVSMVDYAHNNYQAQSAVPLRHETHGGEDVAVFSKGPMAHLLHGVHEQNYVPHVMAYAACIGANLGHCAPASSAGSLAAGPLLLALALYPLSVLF
Description: The inhibition assay was performed by following the already reported method[18] and the inhibitory activity was measured at the final concentration of 200 µM in diethanolamine (DEA) buffer as discussed in our published article. The first step of the inhibition assay was the treatment of 10 µl of tested derivatives with 20 µl of h-TNAP (46 ng/well) or of h-IAP (57 ng/well). […] Then, 20 µl of CDP-star® substrate was added to each reaction mixture and signals were again measured as after-read, after 15–20 min of incubation. The data were scrutinised by PRISM 5.0 (GraphPad, San Diego, CA) software and the inhibitory concentration values (IC50 values) were attained as discussed earlier.

[2] = biological target: T2, human intestinal alkaline phosphatase (h-IAP) (Homo sapiens, UniProt P09923); experiment: Alkaline phosphatase inhibition assay (h-IAP), CDP-star luminescence; type: biochemical; details: for IC50: IC50 ± SEM, n = 3, DEA buffer
T2 sequence (P09923 20-528): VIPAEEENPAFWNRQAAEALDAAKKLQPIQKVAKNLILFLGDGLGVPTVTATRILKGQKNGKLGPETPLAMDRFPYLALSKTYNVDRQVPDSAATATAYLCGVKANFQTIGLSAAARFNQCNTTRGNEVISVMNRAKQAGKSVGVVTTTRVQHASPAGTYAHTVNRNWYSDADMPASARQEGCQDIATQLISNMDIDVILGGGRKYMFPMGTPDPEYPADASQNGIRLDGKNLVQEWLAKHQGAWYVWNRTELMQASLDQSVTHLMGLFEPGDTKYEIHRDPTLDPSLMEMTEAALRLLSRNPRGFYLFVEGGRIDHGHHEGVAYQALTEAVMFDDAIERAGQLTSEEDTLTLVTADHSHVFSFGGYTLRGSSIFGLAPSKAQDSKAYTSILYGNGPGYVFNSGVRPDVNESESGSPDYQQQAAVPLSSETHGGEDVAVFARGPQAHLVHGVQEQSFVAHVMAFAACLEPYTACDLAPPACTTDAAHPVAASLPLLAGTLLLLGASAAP
Description: The inhibition assay was performed by following the already reported method[18] and the inhibitory activity was measured at the final concentration of 200 µM in diethanolamine (DEA) buffer as discussed in our published article. The first step of the inhibition assay was the treatment of 10 µl of tested derivatives with 20 µl of h-TNAP (46 ng/well) or of h-IAP (57 ng/well). The plates were incubated at 37 °C for 5–10 min, and luminescence signals were recorded by microplate reader (BioTek FLx800, Instruments, Inc., Winooski, VT). Then, 20 µl of CDP-star® substrate was added to each reaction mixture and signals were again measured as after-read, after 15–20 min of incubation. The data were scrutinised by PRISM 5.0 (GraphPad, San Diego, CA) software and the inhibitory concentration values (IC50 values) were attained as discussed earlier.

[3] = set-up: method as in PMID 24360561, PMID 25016229, PMID 27779319; details: previously reported data; cited from earlier work
colon cancer cell line = system: colon cancer cell line; set-up: method as in PMID 24360561, PMID 25016229, PMID 27779319; details: previously reported data; cited from earlier work

Row | Structure (SMILES) | IC50 [1] [µM] | IC50 [2] [µM] | further results
1 | CCCS(=O)(=O)Oc1cc2oc(=O)c3c(c2cc1OC)CCCCCC3 [Compound 1r] | 2.6 ± 0.49 | 0.75 ± 0.07 | –
2 | O=c1oc2cc(OS(=O)(=O)c3ccc(F)cc3)ccc2c2c1CCCCC2 [Compound 1i] | 1.06 ± 0.11 | 0.45 ± 0.09 | anti-inflammatory effects (in words) [3]: maximum anti-inflammatory effects; antiproliferative effect against colon cancer cell line (in words) (colon cancer cell line): strongest antiproliferative derivatives; melting point: 147 to 149 °C
3 | N[C@@H](Cc1ccccc1)C(=O)O [L-Phenylalanine, reference compound] | – | 100 | –
4 | COc1cc2c3c(c(=O)oc2cc1OS(=O)(=O)c1ccc(C(F)(F)F)cc1)CCCCC3 [Compound 1w] | > 100 | > 100 | –
5 | CS(=O)(=O)Oc1cc2oc(=O)c3c(c2cc1Cl)CCCCC3 [Compound 1y] | > 100 | > 100 | activity towards h-IAP (in words) [2]: inactive
6 | O=c1oc2cc(OS(=O)(=O)c3ccccc3)ccc2c2c1CCCCCC2 [Compound 1l] | 1.13 ± 0.21 | 2.82 ± 0.82 | –
7 | CCCS(=O)(=O)Oc1ccc2c3c(c(=O)oc2c1)CCCCCC3 [Compound 1k] | 1.91 ± 0.11 | 3.37 ± 0.79 | –
8 | CS(=O)(=O)Oc1ccc2c3c(c(=O)oc2c1)CCCCC3 [Compound 1a] | 0.48 ± 0.01 | 1.98 ± 0.19 | –
9 | COc1cc2c3c(c(=O)oc2cc1OS(C)(=O)=O)CCCCC3 [Compound 1o] | 1.21 ± 0.11 | 11.8 ± 1.91 | –
10 | Cc1ccc(S(=O)(=O)Oc2ccc3c4c(c(=O)oc3c2)CCCCC4)cc1 [Compound 1f] | 0.38 ± 0.01 | 1.94 ± 0.11 | –
11 | COc1cc2c3c(c(=O)oc2cc1OS(C)(=O)=O)CCCCCC3 [Compound 1p] | 1.49 ± 0.13 | 1.51 ± 0.17 | –

Continued by falling IC50 [1], values first:

Row | IC50 [1] [µM] | IC50 [2] [µM] | Structure (SMILES) | further results
12 | 8.57 ± 0.73 | 1.84 ± 0.19 | O=c1oc2cc(OS(=O)(=O)c3ccccc3)ccc2c2c1CCCCC2 [Compound 1e] | –
13 | 5.73 ± 1.06 | > 100 | O=c1oc2cc(OS(=O)(=O)c3ccccc3)c(Cl)cc2c2c1CCCCC2 [Compound 1z] | selectivity h-TNAP over h-IAP (in words) [1]: selective inhibitors of h-TNAP; activity towards h-IAP (in words) [2]: inactive
14 | 4.31 ± 0.99 | > 100 | CCCS(=O)(=O)Oc1cc2oc(=O)c3c(c2cc1OC)CCCCC3 [Compound 1q] | selectivity h-TNAP over h-IAP (in words) [1]: selective inhibitors of h-TNAP
15 | 2.68 ± 0.18 | 0.83 ± 0.06 | COc1cc2c3c(c(=O)oc2cc1OS(=O)(=O)c1ccccc1)CCCCCC3 [Compound 1t] | –
16 | 2.22 ± 0.27 | 1.11 ± 0.01 | Cc1ccc(S(=O)(=O)Oc2cc3oc(=O)c4c(c3cc2Cl)CCCCC4)cc1 [Compound 1za] | –
17 | 2.13 ± 0.19 | 2.71 ± 0.23 | CCS(=O)(=O)Oc1ccc2c3c(c(=O)oc2c1)CCCCC3 [Compound 1b] | –
18 | 1.74 ± 0.14 | 0.84 ± 0.09 | CCS(=O)(=O)Oc1ccc2c3c(c(=O)oc2c1)CCCCCC3 [Compound 1j] | –
19 | 1.65 ± 0.13 | 0.79 ± 0.05 | COc1cc2c3c(c(=O)oc2cc1OS(=O)(=O)c1ccc(C)cc1)CCCCC3 [Compound 1u] | –
20 | 1.59 ± 0.16 | 2.12 ± 0.23 | Cc1ccc(S(=O)(=O)Oc2ccc3c4c(c(=O)oc3c2)CCCCCC4)cc1 [Compound 1m] | anti-inflammatory effects (in words) [3]: maximum anti-inflammatory effects; antiproliferative effect against colon cancer cell line (in words) (colon cancer cell line): strongest antiproliferative derivatives
21 | 1.52 ± 0.17 | 0.91 ± 0.06 | CCCS(=O)(=O)Oc1ccc2c3c(c(=O)oc2c1)CCCCC3 [Compound 1c] | –
22 | 1.29 ± 0.12 | 1.63 ± 0.19 | COc1cc2c3c(c(=O)oc2cc1OS(=O)(=O)c1ccc(C(F)(F)F)cc1)CCCCCC3 [Compound 1x] | –
23 | 1.26 ± 0.07 | 3.88 ± 0.32 | COc1cc2c3c(c(=O)oc2cc1OS(=O)(=O)c1ccccc1)CCCCC3 [Compound 1s] | –
24 | 0.98 ± 0.13 | 0.96 ± 0.08 | O=c1oc2cc(OS(=O)(=O)C3CC3)ccc2c2c1CCCCC2 [Compound 1d] | –
25 | 0.64 ± 0.02 | 1.45 ± 0.04 | COc1cc2c3c(c(=O)oc2cc1OS(=O)(=O)c1ccc(C)cc1)CCCCCC3 [Compound 1v] | –
